Patent US12162861B2, “Dopamine D3 receptor selective antagonists/partial agonists; method of making; and use thereof” (THE UNITED STATES OF AMERICA, AS REPRESENTED BY THE …, priority 2016, dated 2024)
“Also recorded” adds a separate entry of the source.

Assays:
[1] = biological target: T1, human dopamine D3R (Homo sapiens, UniProt P35462); test: D3R mitogenesis assay in CHO cells; type: cell-based; settings: stimulation of mitogenesis, CHO cells with human D3R; read-out: Agonist EC50 ± SEM
T1 construct: expressed in transfected cells; host or cells: CHO

[2] = tested on: squirrel monkeys; test: THC self-administration in squirrel monkeys (FR10); type: in vivo, squirrel monkey (Saimiri sciureus); settings: FR10, 1, 3, and 10 mg/kg i.m.
From the text: Subjects: Seven adult male squirrel monkeys (Saimiri sciureus) weighing 0.8 to 1.1 kg were housed in individual cages in a temperature- and humidity-controlled room with unrestricted access to water. […] The monkeys were trained to self-administer either THC or food pellets prior to the study. Monkeys were fed (approximately two hours after the session) a daily food ration consisting of biscuits of high protein monkey diet (Lab Diet 5045, PMI Nutrition International, Richmond, Indiana). The number of biscuits (8-14) was determined for each monkey individually to maintain their body weights at a constant level throughout the study. […]
Apparatus: Experimental chambers and other apparatus used in this study were the same as previously described (Justinova et al. 2003). […] The chair contained one response lever (Med Associates., USA) mounted on a transparent front wall; each press on the lever with a force greater than 0.2 N produced an audible click and was recorded as a response. […]
Self-administration procedure: Daily one-hour experimental sessions were typically conducted from Monday through Friday with each monkey. […] Before the start of the session, catheters were flushed with 1 ml of saline and one injection was delivered (calculated to fill the dead space of the catheter which was about 0.2 ml). […]

[3] = biological target: T2, human D3R (Homo sapiens, UniProt P35462); test: Radioligand competition binding, [3H]N-methylspiperone, D3R; settings: Table 1A; HEK 293 cells transfected with hD3R, [3H]N-methylspiperone; read-out: D3R K ± SEM
T2 construct: expressed in transfected cells; host or cells: HEK293
Protocol: Binding at dopamine D2-like receptors was determined using previously described methods. […] Upon reaching 80-90% confluence, cells were harvested using pre-mixed Earle's Balanced Salt Solution (EBSS) with 5 μM EDTA (Life Technologies) and centrifuged at 3000 rpm for 10 min at 21° C. The supernatant was removed and the pellet was resuspended in 10 mL hypotonic lysis buffer (5 mM MgCl2·6H2O, 5 mM Tris, pH 7.4 at 4° C.) and centrifuged at 20,000 rpm for 30 min at 4° C. The pellet was then resuspended in fresh EBSS buffer made from 8.7 g/L Earle's Balanced Salts without phenol red (US Biological, Salem, MA), 2.2 g/L sodium bicarbonate, pH to 7.4. A Bradford protein assay (Bio-Rad, Hercules, CA) was used to determine the protein concentration and membranes were diluted to 500 μg/mL and stored in a −80° C. freezer for later use.
Radioligand competition binding experiments were conducted using thawed membranes. Test compounds were freshly dissolved in 30% DMSO and 70% H2O to a stock concentration of 100 μM. To assist the solubilization of free-base compounds, 10 μl of glacial acetic acid was added along with the DMSO. Each test compound was then diluted into 13 half-log serial dilutions using 30% DMSO vehicle; final test concentrations ranged from 10 μM to 10 pM. Previously frozen membranes were diluted in fresh EBSS to a 100 μg/mL (for hD2R or hD3R) or 200 μg/mL (hD4R) stock for binding. Radioligand competition experiments were conducted in glass tubes containing 300 μl fresh EBSS buffer with 0.2 mM sodium metabisulfite, 50 μl of diluted test compound, 100 μl of membranes (10 μg total protein for hD2R or hD3R, 20 μg total protein for hD4R), and 50 μl of [^3H]N-methylspiperone (0.4 nM final concentration; Perkin Elmer). Nonspecific binding was determined using 10 μM butaclamol (Sigma-Aldrich, St. Louis, MO) and total binding was determined with 30% DMSO vehicle. All compound dilutions were tested in triplicate and the reaction incubated for one hour at room temperature. The reaction was terminated by filtration through Whatman GF/B filters, presoaked for one hour in 0.5% polyethylenimine, using a Brandel R48 filtering manifold (Brandel Instruments, Gaithersburg, MD). The filters were washed 3 times with 3 mL of ice cold EBSS buffer and transferred to scintillation vials. […] IC50 values for each compound were determined from dose-response curves and Ki values were calculated using the Cheng-Prusoff equation; these analyses were performed using GraphPad Prism version 5.00 for Windows (GraphPad Software, San Diego, CA). Reported Ki values were determined from least three independent experiments.

[4] = tested on: Long-Evans rats; test: Reinstatement of drug-seeking induced by oxycodone priming in rats; type: in vivo, rat; settings: 5-15 mg/kg i.p., oxycodone priming 1 mg/kg i.p.
Protocol: Experiment 3. […] After completion of self-administration training, three additional groups of animals were exposed to the extinction conditions, in which cocaine was replaced by saline, and the cocaine-associated cue-light and tone were turned off. Active lever-pressing led only to saline infusion. Daily 3 hr extinction sessions for each rat continued until lever presses ≤10 times per 3 h session for at least 3 consecutive days. […] Fifteen min after injection, they were given a priming injection of oxycodone (1 mg/kg i.p.) and immediately put into the self-administration chambers. Animals were allowed to press levers for another extinction session and their responses on the levers were recorded.

T2 sequence (P35462 whole entry): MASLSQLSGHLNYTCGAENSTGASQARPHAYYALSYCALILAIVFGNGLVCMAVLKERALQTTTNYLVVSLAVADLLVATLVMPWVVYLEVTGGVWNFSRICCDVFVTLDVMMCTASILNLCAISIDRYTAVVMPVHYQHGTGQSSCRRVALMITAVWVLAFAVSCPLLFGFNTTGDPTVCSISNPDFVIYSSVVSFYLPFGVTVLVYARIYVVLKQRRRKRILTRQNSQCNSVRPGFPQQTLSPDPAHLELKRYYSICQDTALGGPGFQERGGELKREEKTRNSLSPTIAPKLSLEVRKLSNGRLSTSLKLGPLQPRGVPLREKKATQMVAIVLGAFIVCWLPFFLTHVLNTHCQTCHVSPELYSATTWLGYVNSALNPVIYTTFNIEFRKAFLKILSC
T1 sequence (P35462 whole entry): as above

Compound: CCc1cc(Cl)c(OC)c(N2CCN(CC(O)CCNC(=O)c3cc4ccccc4[nH]3)CC2)c1 (racemic) [Compound 29, N-(4-(4-(3-chloro-5-ethyl-2-methoxyphenyl)piperazin-1-yl)-3-hydroxybutyl)-1H-indole-2-carboxamide]
- EC50 [1]: > 8.3 µM
- THC self-administration ([2]; FIG. 7): attenuates THC self-administration; also recorded: dose-dependently blocked THC self-administration
- THC self-administration ([2]; FIG. 7, listed as (±)-29): attenuation of THC self-administration
- Ki [3]: 6.29 nM
- oxycodone-induced reinstatement to drug seeking ([4]; FIG. 4): blocked oxycodone-induced reinstatement to drug seeking
- oxycodone-induced reinstatement to drug seeking ([4]; FIG. 4, listed as (±)-29): attenuating effects
